pIC50: −log10 of the molar value. Values belong to the compound of their own block, whether it stands above or below them. Activity calls are given as the source filed them. The calls are words filed in the database; no cut-off is given here.
How the values were obtained:
[1] = (§1) Inhibition of NF-kappaB/AP-1 in mouse RAW264.7 cells assessed as reduction in LPS-induced nitric oxide production incubated for 1 hr followed by stimulation with LPS for 24 hrs by Griess assay; type: cell-based
[2] = Cytotoxicity against LPS-induced mouse RAW264.7 cells assessed as decrease in cell viability after 24 hrs by MTT assay; type: toxicity; settings: LPS-induced RAW264.7 cells
[3] = (§2) Inhibition of NF-kappaB/AP-1 in mouse RAW264.7 cells assessed as reduction in LPS-induced PGE2 production incubated for 1 hr followed by stimulation with LPS for 24 hrs by enzyme immuno assay; type: cell-based
RAW264.7 [4] = test: Inhibition of NF-kappaB/AP-1 in mouse RAW264.7 cells assessed as reduction in LPS-induced IL-1beta mRNA level incubated for 4 hrs by SYBR green dye based qRT-PCR analysis; type: cell-based
RAW264.7 [5] = test: Inhibition of NF-kappaB/AP-1 in mouse RAW264.7 cells assessed as reduction in LPS-induced COX-2 mRNA level incubated for 4 hrs by SYBR green dye based qRT-PCR analysis; type: cell-based
[6] = target: Transcription factor p65 (Mus musculus) (UniProt Q04207); test: Inhibition of LPS-induced NF-kappaB p65 subunit nuclear translocation in mouse RAW264.7 cells at 50 uM incubated for 1 hr followed by stimulation with LPS for 15 to 45 mins; type: cell-based
RAW264.7 [7] = test: as §1; type: cell-based
[8] = target: Proto-oncogene c-Fos (Mus musculus) (UniProt P01101); test: Inhibition of LPS-induced AP-1 c-Fos component phosphorylation in nucleus of mouse RAW264.7 cells at 50 uM incubated for 1 hr followed by stimulation with LPS for 15 to 45 mins by Western blot analysis
[9] = target: Transcription factor p65 (Mus musculus) (UniProt Q04207); test: Inhibition of LPS-induced NF-kappaB p65 subunit phosphorylation in mouse RAW264.7 cells at 50 uM incubated for 1 hr followed by stimulation with LPS for 15 to 45 mins; type: cell-based
RAW264.7 [10] = test: Inhibition of NF-kappaB/AP-1 in mouse RAW264.7 cells assessed as reduction in LPS-induced IL-1beta production incubated for 1 hr followed by stimulation with LPS for 24 hrs by enzyme immuno assay; type: cell-based
RAW264.7 [11] = test: Inhibition of NF-kappaB/AP-1 in mouse RAW264.7 cells assessed as reduction in LPS-induced IL-6 production incubated for 1 hr followed by stimulation with LPS for 24 hrs by enzyme immuno assay; type: cell-based
RAW264.7 [12] = test: Inhibition of NF-kappaB/AP-1 in mouse RAW264.7 cells assessed as reduction in LPS-induced iNOS mRNA level incubated for 4 hrs by SYBR green dye based qRT-PCR analysis; type: cell-based
RAW264.7 [13] = test: Inhibition of NF-kappaB/AP-1 in mouse RAW264.7 cells assessed as reduction in LPS-induced TNF-alpha production incubated for 1 hr followed by stimulation with LPS for 24 hrs by enzyme immuno assay; type: cell-based
RAW264.7 [14] = test: Inhibition of NF-kappaB/AP-1 in mouse RAW264.7 cells assessed as reduction in LPS-induced iNOS protein expression incubated for 1 hr followed by stimulation with LPS for 24 hrs by Western blot analysis; type: cell-based
RAW264.7 [15] = test: Inhibition of NF-kappaB/AP-1 in mouse RAW264.7 cells assessed as reduction in LPS-induced TNF-alpha mRNA level incubated for 4 hrs by SYBR green dye based qRT-PCR analysis; type: cell-based
RAW264.7 [16] = test: Inhibition of LPS-induced NF-kappaB (unknown origin) activity expressed in mouse RAW264.7 cells incubated for 1 hr followed by stimulation with LPS for 18 hrs by luciferase reporter gene assay; type: cell-based
[17] = target: RAC-alpha serine/threonine-protein kinase (Mus musculus) (UniProt P31750); test: Inhibition of LPS-induced AKT phosphorylation in mouse RAW264.7 cells at 50 uM incubated for 1 hr followed by stimulation with LPS by Western blot analysis; type: cell-based
[18] = target: Transcription factor Jun (Homo sapiens) (UniProt P05412); test: Inhibition of LPS-induced AP-1 (unknown origin) activity expressed in mouse RAW264.7 cells incubated for 1 hr followed by stimulation with LPS for 18 hrs by luciferase reporter gene assay; type: cell-based
RAW264.7 [19] = test: Inhibition of NF-kappaB/AP-1 in mouse RAW264.7 cells assessed as reduction in LPS-induced COX-2 protein expression incubated for 1 hr followed by stimulation with LPS for 24 hrs by Western blot analysis; type: cell-based
Mus musculus = organism: Mus musculus; test: Cytotoxicity against LPS-induced mouse RAW264.7 cells assessed as decrease in cell viability up to 50 uM after 24 hrs by MTT assay; type: toxicity, cell-based; settings: raw264.7, 24 h
RAW264.7 [20] = test: Inhibition of NF-kappaB/AP-1 in mouse RAW264.7 cells assessed as reduction in LPS-induced IL-6 mRNA level incubated for 4 hrs by SYBR green dye based qRT-PCR analysis; type: cell-based
RAW264.7 [21] = test: as §2; type: cell-based

Sequence of Transcription factor p65 (Mus musculus) (Q04207 whole entry): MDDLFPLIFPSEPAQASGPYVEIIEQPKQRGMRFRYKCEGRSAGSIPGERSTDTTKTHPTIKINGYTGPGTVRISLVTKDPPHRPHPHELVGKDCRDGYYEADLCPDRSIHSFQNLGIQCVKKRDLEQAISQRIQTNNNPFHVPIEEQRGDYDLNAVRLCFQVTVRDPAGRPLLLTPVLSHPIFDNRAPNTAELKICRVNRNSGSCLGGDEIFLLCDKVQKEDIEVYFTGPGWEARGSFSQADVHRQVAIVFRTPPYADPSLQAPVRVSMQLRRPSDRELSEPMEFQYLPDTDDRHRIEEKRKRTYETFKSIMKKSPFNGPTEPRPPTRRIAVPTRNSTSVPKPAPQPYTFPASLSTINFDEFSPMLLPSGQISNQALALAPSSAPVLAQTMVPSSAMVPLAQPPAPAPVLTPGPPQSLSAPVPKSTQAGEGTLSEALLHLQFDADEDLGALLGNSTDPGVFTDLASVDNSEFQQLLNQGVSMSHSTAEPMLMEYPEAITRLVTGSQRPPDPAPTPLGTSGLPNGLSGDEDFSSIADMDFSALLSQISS
Sequence of Proto-oncogene c-Fos (Mus musculus) (P01101 whole entry, looked up): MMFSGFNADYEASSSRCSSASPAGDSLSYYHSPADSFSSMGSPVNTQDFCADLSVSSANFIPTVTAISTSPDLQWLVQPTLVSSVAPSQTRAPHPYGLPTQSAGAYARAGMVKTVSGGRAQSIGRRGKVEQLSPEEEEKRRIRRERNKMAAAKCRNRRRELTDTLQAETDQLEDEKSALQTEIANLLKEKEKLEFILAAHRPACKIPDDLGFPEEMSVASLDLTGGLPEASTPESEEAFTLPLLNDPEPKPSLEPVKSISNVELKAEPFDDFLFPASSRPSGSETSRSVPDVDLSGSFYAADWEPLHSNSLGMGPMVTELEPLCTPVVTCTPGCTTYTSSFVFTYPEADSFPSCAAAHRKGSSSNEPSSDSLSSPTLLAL
Sequence of Transcription factor Jun (Homo sapiens) (P05412 whole entry): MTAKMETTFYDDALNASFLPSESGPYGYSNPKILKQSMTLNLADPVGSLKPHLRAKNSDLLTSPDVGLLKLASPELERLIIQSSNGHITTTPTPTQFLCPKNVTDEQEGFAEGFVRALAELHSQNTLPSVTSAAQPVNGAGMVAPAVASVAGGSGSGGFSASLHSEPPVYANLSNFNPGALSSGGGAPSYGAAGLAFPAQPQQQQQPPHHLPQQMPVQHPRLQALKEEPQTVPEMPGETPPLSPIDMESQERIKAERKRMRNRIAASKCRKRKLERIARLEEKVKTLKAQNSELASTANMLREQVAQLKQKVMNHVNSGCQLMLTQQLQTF
Sequence of RAC-alpha serine/threonine-protein kinase (Mus musculus) (P31750 whole entry): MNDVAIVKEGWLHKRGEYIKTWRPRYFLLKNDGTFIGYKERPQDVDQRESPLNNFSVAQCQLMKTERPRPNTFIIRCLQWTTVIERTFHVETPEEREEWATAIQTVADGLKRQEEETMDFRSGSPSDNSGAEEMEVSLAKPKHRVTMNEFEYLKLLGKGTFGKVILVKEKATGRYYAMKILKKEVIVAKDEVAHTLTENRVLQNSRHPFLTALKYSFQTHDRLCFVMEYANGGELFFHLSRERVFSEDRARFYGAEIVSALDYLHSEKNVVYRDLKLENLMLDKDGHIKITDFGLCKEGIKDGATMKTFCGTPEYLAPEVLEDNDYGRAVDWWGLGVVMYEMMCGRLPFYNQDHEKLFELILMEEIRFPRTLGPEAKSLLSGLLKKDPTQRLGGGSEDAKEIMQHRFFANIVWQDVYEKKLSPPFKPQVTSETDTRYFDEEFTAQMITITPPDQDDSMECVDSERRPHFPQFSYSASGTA

Structure (SMILES): C[C@H](/C=C/[C@@]1(O)[C@H](C)CC(=O)CC1(C)C)O[C@@H]1O[C@H](COC(=O)/C=C/c2ccc(O)c(O)c2)[C@@H](O)[C@H](O)[C@H]1O
pIC50 [1]: < 4.30
IC80 at 24 h [2]: > 100 µM
pIC50 [3]: < 4.30

Structure (SMILES): CC(=O)/C=C/C1=C(C)[C@@H](O)[C@@H](O[C@@H]2O[C@H](COC(=O)/C=C/c3ccc(O)c(O)c3)[C@@H](O)[C@H](O)[C@H]2O)CC1(C)C
pIC50 [1]: < 4.30
IC80 at 24 h [2]: > 100 µM
pIC50 [3]: < 4.30

Structure (SMILES): CC1=CC(=O)CC(C)(C)[C@@]1(O)/C=C/[C@@H](C)O[C@@H]1O[C@H](COC(=O)/C=C/c2ccc(O)c(O)c2)[C@@H](O)[C@H](O)[C@H]1O
pIC50 [1]: < 4.30
IC80 at 24 h [2]: 67.8 µM
pIC50 [3]: < 4.30

Stronger by pIC50 [1], values ahead:

inhibition [6]: Active
pIC50 [1]: 4.36
inhibition [8]: Active
inhibition [9]: Active
inhibition [17]: Active
inhibition [18]: Dose-dependent effect
pIC50 [3]: 4.32
Structure (SMILES): COc1cc(CCCO)cc(OC)c1O[C@@H]1O[C@H](COC(=O)/C=C/c2ccc(O)c(O)c2)[C@@H](O)[C@H](O)[C@H]1O
inhibition (RAW264.7 [4]): Active
inhibition (RAW264.7 [5]): Dose-dependent effect
inhibition (RAW264.7 [7]): Dose-dependent effect
inhibition (RAW264.7 [10]): Active
inhibition (RAW264.7 [11]): Active
inhibition (RAW264.7 [12]): Dose-dependent effect
IC80 at 24 h [2]: 67.6 µM
inhibition (RAW264.7 [13]): Active
inhibition (RAW264.7 [14]): Dose-dependent effect
inhibition (RAW264.7 [15]): Active
inhibition (RAW264.7 [16]): Dose-dependent effect
inhibition (RAW264.7 [19]): Dose-dependent effect
Activity (Mus musculus): Non-Toxic
inhibition (RAW264.7 [20]): Active
inhibition (RAW264.7 [21]): Dose-dependent effect

pIC50 [1]: 4.50
pIC50 [3]: < 4.30
Structure (SMILES): C/C(=C\CO)CO[C@@H]1O[C@H](COC(=O)/C=C/c2ccc(O)c(O)c2)[C@@H](O)[C@H](O)[C@H]1O
IC80 at 24 h [2]: > 100 µM
